{
  "source": "patent EP0549433A1",
  "about": "“Use of N'-substituted N-phenylsulfonylureas in the treatment of hypertension in insulin-resistant patients” (ADIR ET COMPAGNIE, priority 1991, dated 1993)",
  "tested_on": "rat âgé",
  "assay": "Chronic treatment of the aged rat: arterial blood pressure",
  "assay_type": "in vivo",
  "settings": "young rat (3 months per Tableau 1); 0,1 à 1 mg /kg par jour for 2 weeks",
  "description": "Etude du traitement chronique du rat âgé\nAu cours du vieillissement, une insulino-résistance apparaît, accompagnée d'une hyperinsulinémie et d'une élévation de la pression artérielle (cf tableau 1 ci-après).\nA titre d'exemple, le traitement par le gliclazide à la dose de 0,1 à 1 mg /kg par jour pendant 2 semaines, diminue la pression artérielle du rat âgé de 9.10² à 11.10² Pa sans modifier celle du rat jeune.",
  "data": [
    {"smiles": "Cc1ccc(S(=O)(=O)NC(=O)NN2CC3CCCC3C2)cc1", "note": "(stereo not shown) [gliclazide]", "values": [
      {"measurement": "pression artérielle du rat jeune", "result": "sans modifier"}
    ]}
  ]
}
